Each structure is given as a SMILES string.

The values that follow come from patent publication US20230040770A1, “HETEROCYCLIC COMPOUND AND USE THEREOF” (TAKEDA PHARMACEUTICAL COMPANY LIMITED, priority 2019, published 2023).

The target of this assay is T1, human orexin type 2 receptor (Homo sapiens, UniProt O43614).
T1 construct: expressed in transfected cells
T1 sequence (O43614 1-444): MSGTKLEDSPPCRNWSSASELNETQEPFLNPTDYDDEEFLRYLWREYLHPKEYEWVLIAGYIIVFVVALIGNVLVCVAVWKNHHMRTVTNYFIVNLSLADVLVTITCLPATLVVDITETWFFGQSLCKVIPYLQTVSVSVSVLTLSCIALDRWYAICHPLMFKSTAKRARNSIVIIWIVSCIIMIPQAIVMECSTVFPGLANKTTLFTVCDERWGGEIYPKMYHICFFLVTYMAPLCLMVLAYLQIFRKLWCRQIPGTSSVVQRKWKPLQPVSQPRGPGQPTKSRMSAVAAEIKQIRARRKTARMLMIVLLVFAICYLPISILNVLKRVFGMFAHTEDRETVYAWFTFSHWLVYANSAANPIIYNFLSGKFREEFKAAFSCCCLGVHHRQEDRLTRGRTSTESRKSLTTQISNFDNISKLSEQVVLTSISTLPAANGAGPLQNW
The assay can be described thus: Measurement of orexin type 2 receptor agonist activity (calcium indicator fluorescence, CHO cells forcibly expressing human OX2 receptor). The assay is classed as cell-based. The note with it: compound at 3 μM; 0% = DMSO, 100% = orexin A (human) 10 nM. The method in brief:
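Agonist response normalised between vehicle (0%) and orexin A at 10 nM final (100%), from kinetic Fluo-4 calcium signals recorded for about 2 min after compound addition. Cells: stable human OX2R CHO clone, dye-loaded 30 min at 37 °C plus 30 min at room temperature.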
On to `O=C(C1CCO1)N1C[C@H](F)[C@H](NS(=O)(=O)C2CC2)[C@@H]1Cc1cccc(-c2cccc(F)c2)c1F` (stereo partly drawn) [Example 385, N-[(2S,3R,4S)-2-[(2,3′-difluoro[1,1′-biphenyl]-3-yl)methyl]-4-fluoro-1-(oxetane-2-carbonyl)pyrrolidin-3-yl]cyclopropanesulfonamide], for which the “OX2R agonist activity (3 μM, %)” value is recorded as 95%.

With `CN(C)C(=O)N1C[C@H](F)[C@H](NS(=O)(=O)C2CC2)[C@@H]1Cc1cccc(-c2cccc(F)c2)c1F` [Example 387, (2S,3R,4S)-3-[(cyclopropanesulfonyl)amino]-2-[(2,3′-difluoro[1,1′-biphenyl]-3-yl)methyl]-4-fluoro-N,N-dimethylpyrrolidine-1-carboxamide], the “OX2R agonist activity (3 μM, %)” value was determined as 85%. In the case of `CC(C)(O)C(=O)N1C[C@H](F)[C@H](NS(C)(=O)=O)[C@@H]1Cc1cccc(-c2cccc(Cl)c2)c1F` [Example 388, N-[(2S,3R,4S)-2-[(3′-chloro-2-fluoro[1,1′-biphenyl]-3-yl)methyl]-4-fluoro-1-(2-hydroxy-2-methylpropanoyl)pyrrolidin-3-yl]methanesulfonamide], the “OX2R agonist activity (3 μM, %)” value amounted to 89%. For `CC(C)(O)C(=O)N1C[C@H](F)[C@H](NS(C)(=O)=O)[C@@H]1Cc1cccc(-c2cccc(Cl)c2F)c1F` [Example 389, N-[(2S,3R,4S)-2-[(3′-chloro-2,2′-difluoro[1,1′-biphenyl]-3-yl)methyl]-4-fluoro-1-(2-hydroxy-2-methylpropanoyl)pyrrolidin-3-yl]methanesulfonamide], the “OX2R agonist activity (3 μM, %)” value is listed as 89%. As for `CC(C)(O)C(=O)N1C[C@H](F)[C@H](NS(C)(=O)=O)[C@@H]1Cc1cccc(-c2cc(F)cc(Cl)c2)c1F` [Example 391, N-[(2S,3R,4S)-2-[(3′-chloro-2,5′-difluoro[1,1′-biphenyl]-3-yl)methyl]-4-fluoro-1-(2-hydroxy-2-methylpropanoyl)pyrrolidin-3-yl]methanesulfonamide], the “OX2R agonist activity (3 μM, %)” value stood at 92%. With `CS(=O)(=O)N[C@@H]1[C@H](Cc2cccc(-c3cccc(F)c3)c2F)N(C(=O)C2CC(F)C2)CC1(F)F` (stereo partly drawn) [Example 392, N-[(2S,3R)-2-[(2,3′-difluoro[1,1′-biphenyl]-3-yl)methyl]-4,4-difluoro-1-(3-fluorocyclobutane-1-carbonyl)pyrrolidin-3-yl]methanesulfonamide], the “OX2R agonist activity (3 μM, %)” value amounted to 97%.

Take `CS(=O)(=O)N[C@@H]1[C@H](Cc2cccc(-c3cccc(F)c3)c2F)N(C(=O)C2CC(F)C2)CC1(F)F` (stereo partly drawn) [Example 393, N-[(2S,3R)-2-[(2,3′-difluoro[1,1′-biphenyl]-3-yl)methyl]-4,4-difluoro-1-(3-fluorocyclobutane-1-carbonyl)pyrrolidin-3-yl]methanesulfonamide]: the “OX2R agonist activity (3 μM, %)” value is 94%.

With `CCS(=O)(=O)N[C@@H]1[C@H](Cc2cccc(-c3cc(C)cc(F)c3)c2F)N(C(=O)C2(O)CCC2)CC1(F)F` [Example 394, N-[(2S,3R)-2-[(2,3′-difluoro-5′-methyl[1,1′-biphenyl]-3-yl)methyl]-4,4-difluoro-1-(1-hydroxycyclobutane-1-carbonyl)pyrrolidin-3-yl]ethanesulfonamide], the “OX2R agonist activity (3 μM, %)” value came out at 86%. Then `CCS(=O)(=O)N[C@H]1[C@@H](F)CN(C(=O)N(C)C)[C@H]1Cc1cccc(-c2cccc(C)c2F)c1F` [Example 408, (2S,3R,4S)-2-[(2,2′-difluoro-3′-methyl[1,1′-biphenyl]-3-yl)methyl]-3-[(ethanesulfonyl)amino]-4-fluoro-N,N-dimethylpyrrolidine-1-carboxamide], with 88%; and `CCS(=O)(=O)N[C@H]1[C@@H](F)CN(C(=O)N(C)C)[C@H]1Cc1cccc(-c2ccc(F)c(C)c2)c1F` [Example 409, (2S,3R,4S)-2-[(2,4′-difluoro-3′-methyl[1,1′-biphenyl]-3-yl)methyl]-3-[(ethanesulfonyl)amino]-4-fluoro-N,N-dimethylpyrrolidine-1-carboxamide], with 92%; and `CCS(=O)(=O)N[C@H]1[C@@H](F)CN(C(=O)[C@H]2CCCO2)[C@H]1Cc1cccc(-c2ccccc2)c1F` [Example 413, N-{(2S,3R,4S)-4-fluoro-2-[(2-fluoro[1,1′-biphenyl]-3-yl)methyl]-1-[(2R)-oxolane-2-carbonyl]pyrrolidin-3-yl}ethanesulfonamide], with 99%.

As to `CCS(=O)(=O)N[C@H]1[C@@H](F)CN(C(=O)[C@H]2CCCO2)[C@H]1Cc1cccc(-c2cc(F)cc(F)c2)c1F` [Example 414, N-{(2S,3R,4S)-4-fluoro-1-[(2R)-oxolane-2-carbonyl]-2-[(2,3′,5′-trifluoro[1,1′-biphenyl]-3-yl)methyl]pyrrolidin-3-yl}ethanesulfonamide], the “OX2R agonist activity (3 μM, %)” value came out at 95%.

As to `CCS(=O)(=O)N[C@H]1[C@@H](F)CN(C(=O)[C@H]2CCCO2)[C@H]1Cc1cccc(-c2cccc(F)c2F)c1F` [Example 415, N-{(2S,3R,4S)-4-fluoro-1-[(2R)-oxolane-2-carbonyl]-2-[(2,2′,3′-trifluoro[1,1′-biphenyl]-3-yl)methyl]pyrrolidin-3-yl}ethanesulfonamide], the “OX2R agonist activity (3 μM, %)” value is reported as 107%. Take `CCS(=O)(=O)N[C@H]1[C@@H](F)CN(C(=O)[C@H]2CCCO2)[C@H]1Cc1cccc(-c2cc(F)ccc2F)c1F` [Example 416, N-{(2S,3R,4S)-4-fluoro-1-[(2R)-oxolane-2-carbonyl]-2-[(2,2′,5′-trifluoro[1,1′-biphenyl]-3-yl)methyl]pyrrolidin-3-yl}ethanesulfonamide]: the “OX2R agonist activity (3 μM, %)” value turned out to be 101%. To `CCS(=O)(=O)N[C@H]1[C@@H](F)CN(C(=O)C2CCO2)[C@H]1Cc1cccc(-c2cccc(Cl)c2)c1F` (stereo partly drawn) [Example 422, N-[(2S,3R,4S)-2-[(3′-chloro-2-fluoro[1,1′-biphenyl]-3-yl)methyl]-4-fluoro-1-(oxetane-2-carbonyl)pyrrolidin-3-yl]ethanesulfonamide] belongs 102%; to `CCS(=O)(=O)N[C@H]1[C@@H](F)CN(C(=O)C2CCO2)[C@H]1Cc1cccc(-c2cccc(Cl)c2F)c1F` (stereo partly drawn) [Example 423, N-[(2S,3R,4S)-2-[(3′-chloro-2,2′-difluoro[1,1′-biphenyl]-3-yl)methyl]-4-fluoro-1-(oxetane-2-carbonyl)pyrrolidin-3-yl]ethanesulfonamide], 90%. As for `O=C(N1CC(F)(F)[C@H](NS(=O)(=O)C2CC2)[C@@H]1Cc1cccc(-c2cccc(F)c2F)c1F)C1(O)CCC1` [Example 424, N-{(2S,3R)-4,4-difluoro-1-(1-hydroxycyclobutane-1-carbonyl)-2-[(2,2′,3′-trifluoro[1,1′-biphenyl]-3-yl)methyl]pyrrolidin-3-yl}cyclopropanesulfonamide], the “OX2R agonist activity (3 μM, %)” value came out at 95%. Turning to `Cc1cccc(-c2cccc(C[C@H]3[C@@H](NS(=O)(=O)C4CC4)C(F)(F)CN3C(=O)N(C)C)c2F)c1` [Example 425, (2S,3R)-3-[(cyclopropanesulfonyl)amino]-4,4-difluoro-2-[(2-fluoro-3′-methyl[1,1′-biphenyl]-3-yl)methyl]-N,N-dimethylpyrrolidine-1-carboxamide], the “OX2R agonist activity (3 μM, %)” value is listed as 95%. Turning to `Cc1cccc(-c2cccc(C[C@H]3[C@@H](NS(=O)(=O)C4CC4)C(F)(F)CN3C(=O)N3CCC3)c2F)c1` [Example 426, N-{(2S,3R)-1-(azetidine-1-carbonyl)-4,4-difluoro-2-[(2-fluoro-3′-methyl[1,1′-biphenyl]-3-yl)methyl]pyrrolidin-3-yl}cyclopropanesulfonamide], the “OX2R agonist activity (3 μM, %)” value is 90%. Regarding `Cc1cccc(-c2cccc(C[C@H]3[C@@H](NS(=O)(=O)N(C)C)C(F)(F)CN3C(=O)C3(O)CCC3)c2F)c1` [Example 427, N′-[(2S,3R)-4,4-difluoro-2-[(2-fluoro-3′-methyl[1,1′-biphenyl]-3-yl)methyl]-1-(1-hydroxycyclobutane-1-carbonyl)pyrrolidin-3-yl]-N,N-dimethylsulfuric diamide], the “OX2R agonist activity (3 μM, %)” value came to 99%. Consider `Cc1cccc(-c2cccc(C[C@H]3[C@@H](NS(=O)(=O)C4CC4)C(F)(F)CN3C(=O)C3CCO3)c2F)c1` (stereo partly drawn) [Example 428, N-[(2S,3R)-4,4-difluoro-2-[(2-fluoro-3′-methyl[1,1′-biphenyl]-3-yl)methyl]-1-(oxetane-2-carbonyl)pyrrolidin-3-yl]cyclopropanesulfonamide], for which the “OX2R agonist activity (3 μM, %)” value worked out at 100%. To `Cc1cccc(-c2cccc(C[C@H]3[C@@H](NS(=O)(=O)C4CC4)C(F)(F)CN3C(=O)C3(O)CCC3)c2F)c1` [Example 430, N-[(2S,3R)-4,4-difluoro-2-[(2-fluoro-3′-methyl[1,1′-biphenyl]-3-yl)methyl]-1-(1-hydroxycyclobutane-1-carbonyl)pyrrolidin-3-yl]cyclopropanesulfonamide] belongs 96%; to `CS(=O)(=O)N[C@@H]1[C@H](Cc2cccc(-c3cc(F)cc(F)c3)c2F)N(C(=O)[C@H]2C[C@H](F)C2)CC1(F)F` [Example 431, N-{(2S,3R)-4,4-difluoro-1-((1r,3S)-3-fluorocyclobutane-1-carbonyl)-2-[(2,3′,5′-trifluoro[1,1′-biphenyl]-3-yl)methyl]pyrrolidin-3-yl}methanesulfonamide], 106%.
